For 62 compounds, melting point results are on record in a melting point compilation (Tetko et al.; mined from patent text by program, amines drawn as free bases though some values may be those of a salt).

The melting point is the temperature of the solid-liquid transition.

Compound `CC1(C)CC(O)CC(C)(C)N1OCc1ccccc1` had a melting point of 86 to 87 °C.

Turning to `Oc1ccc2nc(-c3ccc4ccccc4c3)oc2c1`, the melting point was determined as 226 °C.

`O=C(O)C(=O)c1c(F)cc(OCCOc2ccc3ccccc3c2)cc1F` registered a melting point of 157 to 158 °C.

Consider `COc1cc2c(cc1OC)OCCC(C(=O)O)=C2`, for which the melting point was 209 to 210 °C.

The compound `CC(C)(C)c1cc(C(C)(C)C)c(O)c(S(=O)(=O)Nc2ccc([N+](=O)[O-])cc2Cl)c1` had a melting point of 158 to 161 °C.

With `O=C(O)C1CSC(c2cccc(OCCO[N+](=O)[O-])c2)N1` (configuration not stated), the melting point lay in the range of 117 to 119 °C.

For the compound `COC(=O)C1=NNC(C)=C(C(=O)OC)C1c1ccccc1[N+](=O)[O-]` (configuration not stated), the melting point lay within 203 to 205 °C.

For the compound `O=C(O)c1cnn2c(C(F)F)cc(-c3ccc(C(F)(F)F)c(Cl)c3)nc12`, the melting point is 216 °C.

`Cc1nc(CC(O)Cn2cnc3c2c(=O)n(C)c(=O)n3C)no1` (configuration not stated): the melting point is 148 to 150 °C.

For the compound `CCc1nc(/C=C/c2cccc(O)c2)sc1C`, the melting point fell in the range of 161 to 162 °C.

`OC(COc1ccccc1)c1ccccc1` (configuration not stated) showed a melting point of 61 to 62 °C.

`CCOC(=O)N1CC2(C1)N=C(N)c1c(F)cccc1N2` gave a melting point of 210 to 212 °C.

With `COc1cccc(CC(=O)O)c1OCCCc1cn(-c2ccc(Cl)cn2)nc1C(C)(C)C`, the melting point is 87 to 88 °C.

`CCS(=O)(=O)c1ccc(SC2SCC(OC(C)=O)C(OC(C)=O)C2OC(C)=O)cc1` (configuration not stated): the melting point lay within 136 to 137 °C.

Regarding `CC(C)(C)c1ccc(-c2[nH]c3nccnc3c2CCCO)cc1`, the melting point lay in the range of 187 to 189 °C.

`CCOP(=O)(OCC)C(F)(F)c1ccc(NC(=O)CCc2oc(-n3cnc4ccccc43)nc2-c2ccc(Cl)cc2)cc1`: the melting point lay within 155 to 156 °C.

In the case of `CC(=O)c1cccc2c(=O)c(C)c(-c3ccccc3)oc12`, the melting point fell in the range of 159 to 161 °C.

`CCCCCCCCCCCCCCCCCCS(=O)c1cc2ccccc2cc1OC(C)=O` (configuration not stated) gave a melting point of 91 to 93 °C.

In turn, `CC(c1cccnn1)C(O)(Cn1cncn1)c1ccc(F)cc1F` (configuration not stated) had a melting point of 134 to 135 °C.

For the compound `CCN1C[C@@H](O)[C@H](N(C)C(=O)c2ccc(Cl)cc2)C1` (relative stereo), the melting point lay within 91 to 93 °C.

Turning to `Cc1cc2c(cc1C)N(C)c1cscc1C(=O)N2`, the melting point was 260 to 262 °C.

Compound `N#CCc1c(Br)csc1Br` showed a melting point of 75.5 to 77 °C.

The compound `Cn1ccnc1C(=O)c1[nH]c2ccc(Cl)cc2c1CC(=O)O` showed a melting point of 230 to 233 °C.

Compound `CC(=O)N(C)C1Cc2ccc(C(=O)Cn3cnc4cc(-c5ccc(Cl)cc5)sc4c3=O)cc2C1` (configuration not stated) came in with a melting point of 276 °C.

Compound `O=C(C1CCCCC1)N1CC2CC2(c2ccccc2)C1` (configuration not stated) registered a melting point of 81 to 82 °C.

For `COc1ccc2[nH]c3cc(C(=O)OCc4ccccc4)c4c(c3c2c1)C(=O)NC4=O`, the melting point was determined as 245 °C.

For `CC1(C)C(=NO)C(=NO)C(C)(C)N1C(=O)c1ccccc1`, the melting point fell in the range of 235 to 240 °C.

In the case of `COc1c(C)c(C)c(OC)c(C(O)(c2ccc(C(C)C)cc2)C2CCN(Cc3ccccc3)CC2)c1C` (configuration not stated), the melting point was 105 to 108 °C.

`CCn1cc(C(=O)O)c(=O)c2c(C)c(F)c(N3CCC(N)C3)c(F)c21` (configuration not stated) displayed a melting point of 218 to 220 °C.

`COc1cccc(C(=O)O)c1OCc1nc(-c2ccco2)oc1C` showed a melting point of 198 to 199 °C.

In turn, `Cc1cc(C(=O)CCc2cc(-c3ccc(C(F)(F)F)cc3)nn2C(C)C)ccc1OCC(=O)O` displayed a melting point of 160 to 163 °C.

In turn, `CCc1c(Sc2cc(C)cc(C)c2)n(CC2CC=CC2)c(=O)[nH]c1=O` registered a melting point of 128 to 130 °C.

Compound `CCOC(=O)Cn1c2c(c3cc(Cl)c(Cl)cc31)CCN(C(=O)OC(C)(C)C)CC2` displayed a melting point of 138 to 140 °C.

`COc1ccc(-c2cc(C)cn2-c2ccc(S(N)(=O)=O)cc2)cc1F` showed a melting point of 170 to 173 °C.

Turning to `O=c1[nH]nc2n1-c1ccc(Cl)cc1C(c1ccccc1F)=CC2`, the melting point was 223 to 225 °C.

`NCC(=O)NC(Cc1ccncc1)c1ccccc1` (configuration not stated) yielded a melting point of 145 to 147 °C.

As for `CCCn1c(=O)c2c(NC)n[nH]c2n(Cc2ccc(Cl)cc2)c1=O`, the melting point was 305 to 307 °C.

`NC1Cc2cccc3c2C(C1)CN3C(=O)c1ccccc1` (configuration not stated) showed a melting point of 118 to 120 °C.

Take `CC(=O)NCCC1CNc2ccc3c(c21)CCCO3` (configuration not stated): the melting point fell in the range of 137 to 138 °C.

Consider `CCn1c(N)c(C(=O)NC)c(=O)c2ccc(-c3ccc(CC(=O)Nc4ccccn4)nc3)nc21`, for which the melting point came out at 266 °C.

With `N=C(N)NCCCOc1ccc2cc(CC(=O)O)c(=O)n(Cc3ccccc3)c2c1`, the melting point lay in the range of 132 to 134 °C.

For the compound `CCCNC(=O)c1cccnc1Oc1cccnc1`, the melting point fell in the range of 55 to 56 °C.

`Fc1ccc(F)c(CN2CCNc3ncc(-c4cnc(N5CCOCC5)nc4)cc32)c1Cl` displayed a melting point of 250 to 251 °C.

Regarding `COc1cc2ncnc(N3CCN(C(=O)Nc4ccc(N(C)C)cc4)CC3)c2cc1OC`, the melting point lay within 252 to 254 °C.

With `O=C(Nc1ccc(Br)cc1)Nn1cnc2c(O)cccc2c1=O`, the melting point was 276 to 278 °C.

For `CCOC(=O)c1nc(-c2ccc(Cl)c(OC)c2F)cc(N)c1Cl`, the melting point lay within 74 to 75 °C.

As for `COc1ccc(Cl)cc1C(=O)NCc1ccc(CCC(=O)O)cc1`, the melting point was 152 to 153 °C.

In turn, `CC(=O)Nc1cccc(-c2[nH]c3cccc4c3c2CCNC4=O)c1` yielded a melting point of 300 to 302 °C.

`CC(O)(C(=O)Nc1ccc(S(=O)(=O)N(c2ccccc2)c2ccccc2)cc1)C(F)(F)F` (configuration not stated) displayed a melting point of 217 to 220 °C.

Take `CCCc1ccc(-c2ccc(-c3ccc(OC)cc3)nn2)cc1`: the melting point was in the range of 128 to 130 °C.

`CN1Cc2c(-c3noc(CN4CC=CC4)n3)ncn2-c2ccccc2C1=O` displayed a melting point of 215 to 220 °C.

`Cc1cc([N+](=O)[O-])c(C(=O)OC(C)C)cc1Oc1ccc(OC(F)(F)F)cc1` showed a melting point of 47 to 49 °C.

The compound `CCCc1nn(-c2ccc(C(F)(F)F)cn2)cc1CCCOc1c(F)cccc1CC(=O)O` gave a melting point of 105 to 106 °C.

`COCCOc1cc2ncc(C#N)c(Cl)c2cc1OCc1ccccc1` had a melting point of 142 to 145 °C.

As for `COc1ccc(C(O)CCN2CC=C(c3ccc(Cl)cc3)CC2)cc1` (configuration not stated), the melting point fell in the range of 116 to 118 °C.

The compound `C#CCN1CC(=O)N(c2ccc(Cl)cc2C)C1=S` gave a melting point of 99 to 102 °C.

On to `CCOc1ccc(F)cc1C(C)(C)CC(O)(Cn1ccc(=O)c2ccccc21)C(F)(F)F` (configuration not stated), for which the melting point lay in the range of 195 to 196 °C.

Compound `CSc1sc(S(C)(=O)=O)cc1C#N` showed a melting point of 126 to 128 °C.

`O=C(CCn1c(=O)c(=O)[nH]c2cc(C(F)(F)F)c(-n3cccc3)cc21)NCc1ccccc1` yielded a melting point of 234 to 235 °C.

As to `CC(=O)Nc1cc2c(cc1[N+](=O)[O-])C(CC(C)C)C(=O)N2` (configuration not stated), the melting point was 192 to 197 °C.

`Cc1nnc2n1-c1sccc1C(c1ccccc1Cl)=NC2` gave a melting point of 221 to 223 °C.

As for `Cc1nc(Cl)c2c(c1O)COC2(c1ccccc1)c1cccc(Cl)c1Cl` (configuration not stated), the melting point is 221 °C.
